# Tests used:
# Staphylococcus warneri = assay: Log reduction in populations of Staphylococcus warneri (Example 9); format: cell-based; settings: S. warneri, 1.5 ppm, average of two
# Description: (§1) N-chloro-N,N′-bishydroxymethylurea can be synthesized in the same manner as N-chloro-N,N′-dimethylurea. The bishydroxyurea (1.0 g, 8.33 mmol) was added to methanol (60 mL) in a 250 mL round bottom flask equipped with a magnetic stir bar without cooling. Another aliquot of methanol (20 mL) was added to a small vial. T-butyl hypochlorite (0.75 mL, 6.66 mmol) was diluted in the vial with methanol, and this solution was subsequently added to the urea solution over a period of less than five minutes. The combined solution was stirred for up to another two hours. The solvent was removed in vacuo, resulting in a colorless and transparent oil that solidified upon prolonged standing. The solid was characterized by ^1H NMR which indicated it was 20-30% N-chloro-N,N′-bishydroxymethylurea.
# [1] = Stability in the presence of chlorine demand (0.1× nutrient broth), total chlorine by Hach DPD; format: physicochemical; settings: 5 ppm chlorine
# Description: This can be seen in Table 4 below. 20 mL aliquots of a 0.1× nutrient broth were used and the active species added such that the initial concentration of each was equivalent to 5 ppm chlorine as measured by the Hach. To prepare the nutrient broth Difco Nutrient Broth (8 grams) was dissolved in 1 L of deionized water, and subsequently diluted to 0.1× of the initial concentration prior to being autoclaved at 121° C. for 15 minutes. 100 mL solutions of each of the actives were made, and the concentration was measured using standard Hach test procedures on a BetzDearborn DR 2010 Spectrophotometer. At each time point a 1:10 dilution of the solution in DI water was made and placed in the spectrophotometer cell. Hach Permachem DPD Total Chlorine Reagent was added and the cell was placed into the spectrophotometer. The ppm of Cl2 was measured at 0, 1, 3, 6, 24, and 48 hours. A fresh dilution was made at each time point, if necessary, and the bottles of solution were placed in a shaking incubator at 37° C. in between runs. Dimethyl monochlorourea is notated as DMCU. Bis-hydroxymethyl chlorourea is BHMCU.
# [2] = as above; format: physicochemical; settings: 72 h, 5 ppm chlorine
# Pseudomonas aeruginosa = assay: Log reduction in populations of Pseudomonas aeruginosa (Example 9); format: cell-based; settings: P. aeruginosa, 0.3 ppm, average of two
# Description: as §1
compound,measurement,setting,value
"O=C(NCO)N(Cl)CO [BHMCU, N-chloro-N,N′-bishydroxymethylurea]",Log Reduction,Staphylococcus warneri; 1 hr exposure,6.37
same,Log Reduction,Staphylococcus warneri; 2 hr exposure,6.52
same,Stability: total chlorine remaining relative to initial,[1]; 0 h,100%
same,Stability: total chlorine remaining relative to initial,[1]; 1 h,70%
same,Stability: total chlorine remaining relative to initial,[1]; 3 h,49%
same,Stability: total chlorine remaining relative to initial,[1]; 6 h,38%
same,Stability: total chlorine remaining relative to initial,[2],3%
same,Log Reduction,Pseudomonas aeruginosa; 1 hr exposure,3.63
same,Log Reduction,Pseudomonas aeruginosa; 2 hr exposure,6.98
